Test results reported in US20220242851A1, “CRYSTAL FORM AND SALT OF QUINAZOLINE COMPOUND AND PREPARATION METHOD THEREOF” (SHENZHEN JINRUI FOUNDATION BIOTECH CO., LTD, priority 2019, published 2022).

Experiments:
[1] = Solid stability assay (XRPD, HPLC); type: physicochemical
Description: Sample concentration: 0.5 mg/mL
According to influencing factor and accelerated assay conditions, about 5 mg of the crystal form B of the compound of formula (I) was accurately weighed and placed in a dry and clean glass bottle to form a thin layer as a formal assay sample in duplicate. The sample was placed under an influencing factor assay condition (60° C., 92.5% RH) and accelerated conditions (40° C./75% RH and 60° C./75% RH). The sample was fully exposed, and covered with aluminum foil paper punched with small holes. In addition, a small amount of sample was placed in a 40 mL glass sample bottle under the same conditions to determine the crystal state. The sample placed under light irradiation condition (1.2×10^6 Lux•hr/near ultraviolet 200 w•hr/m^2) was fully exposed at room temperature.

[2] = test system: subcutaneous xenograft tumor of human gastric cancer NCI-N87 cells; experiment: In vivo pharmacodynamics, NCI-N87 subcutaneous xenograft (Assay Example 4); design: species or system mouse; settings: 0.5 mg/kg, compared with the vehicle control group
Description: (§1) Purpose of the assay: in vivo efficacy of the assay compound disclosed herein on subcutaneous xenograft tumor of human gastric cancer NCI-N87 cells in a BALB/c nude mouse model was evaluated.
Animals of the assay: female BALB/c nude mice, 6-8 weeks old, weighted 18-22 grams; supplier: shanghai sippr bk laboratory animals Ltd.
(§2) Human gastric cancer NCI-N87 cells were cultured in monolayer in vitro. The culture conditions were RPMI-1640 medium plus 10% fetal bovine serum, 100 U/mL penicillin, 100 μg/mL streptomycin, 37° C., 5% CO2. The passaging was performed by conventional digestion with trypsin-EDTA twice a week. When the cell saturation was 80%-90%, the cells were collected, counted and inoculated.
0.2 mL (10×10^6) of NCI-N87 cells (PBS+Matrigel, 1:1) were inoculated subcutaneously on the right back of each mouse. […]
The assay index was to investigate whether tumor growth is inhibited, delayed or cured. Tumor diameter was measured twice a week with a vernier caliper. […]
The antitumor efficacy of the compounds was evaluated by TGI (%) or tumor proliferation rate T/C (%). […]
Statistical analysis included the mean and standard error of mean (SEM) of tumor volume at each time point in each group (See Table 14 for specific data). […] The comparison between groups was analyzed by T-test, and the comparison among three or more groups was analyzed by one-way ANOVA. […]

CYP3A4 = molecular target: T1, CYP3A4 (Homo sapiens, UniProt P08684); experiment: Inhibition of CYP enzyme activity in human liver microsome, CYP3A4; type: in vitro ADME
T1 construct: in the assay of CYP enzyme activity in human liver microsome; from tissue; host or cells: human liver microsome
T1 sequence (P08684 whole entry): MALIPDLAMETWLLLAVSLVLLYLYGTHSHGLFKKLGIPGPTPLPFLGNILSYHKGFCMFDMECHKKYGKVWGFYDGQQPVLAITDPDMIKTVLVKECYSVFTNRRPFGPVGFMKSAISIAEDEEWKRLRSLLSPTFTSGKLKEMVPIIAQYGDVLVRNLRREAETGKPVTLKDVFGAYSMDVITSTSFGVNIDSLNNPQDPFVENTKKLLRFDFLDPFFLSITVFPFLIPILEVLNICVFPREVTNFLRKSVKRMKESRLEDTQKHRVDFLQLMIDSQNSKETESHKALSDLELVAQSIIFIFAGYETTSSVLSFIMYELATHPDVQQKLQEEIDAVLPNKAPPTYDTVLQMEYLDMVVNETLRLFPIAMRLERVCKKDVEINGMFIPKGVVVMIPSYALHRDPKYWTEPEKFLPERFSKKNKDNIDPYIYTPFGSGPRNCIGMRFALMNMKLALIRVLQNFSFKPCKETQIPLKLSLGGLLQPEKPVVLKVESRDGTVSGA
From the text: (§3) The results of the compound disclosed herein and the reference compound Poziotinib in the assay of CYP enzyme activity in human liver microsome were shown in the following table (Table 17).

[3] = test system: subcutaneous xenograft tumor of human gastric cancer NCI-N87 cells; experiment: In vivo pharmacodynamics, NCI-N87 subcutaneous xenograft (Assay Example 3); design: species or system mouse; settings: 0.8 mg/kg, compared with the vehicle control group
Description: as §1
Animals of the assay: female BALB/c nude mice, 6-8 weeks old, weighted 18-22 grams; supplier: Shanghai Ling Chang Biotechnology Co., Ltd.
as §2, with “U/mL streptomycin and 2 mM glutamine,” for “μg/mL streptomycin,”, “by the” for “by”
0.2 mL (10×10^6) of NCI-N87 cells (PBS+Matrigel, 1:1) were inoculated subcutaneously on the right back of each nude mouse. When the average tumor volume reached 158 mm^3, administration to each group was started.
The assay compounds were formulated into 0.04 mg/mL and 0.08 mg/mL clear solution in the solvents of 10% NMP (N-methylpyrrolidone)+10% ethylene glycol stearate+80% water.
The assay index was to investigate whether tumor growth is inhibited, delayed or cured. Tumor diameter was measured twice a week with a vernier caliper. The calculation formula of tumor volume was: V=0.5a×b^2, wherein a and b represent the long and short diameters of tumor, respectively.
The antitumor efficacy of the compounds was evaluated by TGI (%) or tumor proliferation rate T/C (%). TGI (%) reflects tumor growth inhibition rate. […]
Statistical analysis included mean and standard error of mean (SEM) of tumor volume at each time point in each group (See Table 13 for specific data). […] The comparison between groups was analyzed by T-test, and the comparison among three or more groups was analyzed by one-way ANOVA. […]

CYP1A2 = molecular target: T2, CYP1A2 (Homo sapiens, UniProt P05177); experiment: Inhibition of CYP enzyme activity in human liver microsome, CYP1A2; type: in vitro ADME; settings: human liver microsome
T2 construct: in the assay of CYP enzyme activity in human liver microsome; from tissue; host or cells: human liver microsome
T2 sequence (P05177 1-516): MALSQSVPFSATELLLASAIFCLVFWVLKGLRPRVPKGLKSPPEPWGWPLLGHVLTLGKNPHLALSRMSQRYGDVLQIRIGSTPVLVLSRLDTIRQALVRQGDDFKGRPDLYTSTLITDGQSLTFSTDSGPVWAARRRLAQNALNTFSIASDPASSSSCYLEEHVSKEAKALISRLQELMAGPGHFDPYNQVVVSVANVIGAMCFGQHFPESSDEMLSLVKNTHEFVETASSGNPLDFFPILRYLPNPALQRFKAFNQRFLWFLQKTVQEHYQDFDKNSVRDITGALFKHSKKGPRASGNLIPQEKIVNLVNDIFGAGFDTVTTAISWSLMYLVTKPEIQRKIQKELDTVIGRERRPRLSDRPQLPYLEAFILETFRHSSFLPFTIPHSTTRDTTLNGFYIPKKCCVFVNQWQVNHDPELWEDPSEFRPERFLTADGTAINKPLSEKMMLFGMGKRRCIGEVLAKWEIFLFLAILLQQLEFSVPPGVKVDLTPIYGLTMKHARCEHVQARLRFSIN
From the text: as §3

[4] = test system: subcutaneous xenograft tumor of human esophageal carcinoma OE21 cells; experiment: In vivo pharmacodynamics, OE21 subcutaneous xenograft (Assay Example 5); design: species or system mouse
Description: Purpose of the assay: in vivo efficacy of the assay compound on subcutaneous xenograft tumor of human esophageal carcinoma OE21 cells in a BALB/c nude mouse model was evaluated.
Animals of the assay: female BALB/c nude mice, 6-8 weeks old, weighted 17-23 grams; supplier: shanghai sippr bk laboratory animals Ltd.
as §2, with “esophageal carcinoma OE21” for “gastric cancer NCI-N87”, “U/mL streptomycin and 2 mM glutamine,” for “μg/mL streptomycin,”
0.1 ml […] OE21 cells (PBS) were inoculated subcutaneously on the right back of each mouse. When the average tumor volume reached 112 mm^3, administration to each group was started.
The assay compound was formulated into a 0.15 mg/mL to 0.3 mg/mL clear or suspension solution in the solvents of 10% NMP+10% ethylene glycol stearate+80% water.
The assay index was to investigate whether tumor growth is inhibited, delayed or cured. Tumor diameter was measured twice a week with vernier caliper. The calculation formula of tumor volume was: V=0.5a×b^2, wherein a and b represent the long and short diameters of tumor, respectively.
The antitumor efficacy of the compounds was evaluated by TGI (%) or relative tumor proliferation rate T/C (%). TGI (%) reflects the tumor growth inhibition rate. TGI (%) was calculated as follows: TGI (%)=[(1−average tumor volume at the end of administration for a certain treatment group−average tumor volume at the beginning of administration for this treatment group))/(average tumor volume at the end of treatment for a vehicle control group−average tumor volume at the beginning of administration for this vehicle control group)]×100%.
Relative tumor proliferation rate T/C (%): the calculation formula was as follows: T/C (%)=average tumor volume at the end of administration for a certain treatment group/average tumor volume at the end of treatment for the vehicle control group×100%.
Statistical analysis included the mean and standard error of mean (SEM) of tumor volume at each time point in each group. One-way ANOVA was used for comparison among three or more groups. […] SPSS 17.0 was used for all data analysis. p<0.05 was considered a significant difference.

Compound: C=CC(=O)N1[C@@H]2CC[C@H]1C[C@H](Nc1cc3c(Nc4ccc(Cl)c(Cl)c4F)ncnc3cc1OC)C2.O=C(O)/C=C\C(=O)O
- Total impurity content ([1]; 40° C., 75% relative humidity, open, 1 month): 1.62%
- Total impurity content ([1]; 40° C., 75% relative humidity, open, 2 months): 1.52%
- Total impurity content ([1]; 40° C., 75% relative humidity, open, 3 months): 1.52%
- Total impurity content ([1]; 40° C., 75% relative humidity, open, 10 days): 1.64%
- Total impurity content ([1]; 60° C., 75% relative humidity, open, 1 month): 1.62%
- Total impurity content ([1]; 60° C., 75% relative humidity, open, 10 days): 1.63%
- Total impurity content ([1]; High humidity (25° C./92.5% relative humidity, open), 5 days): 1.65%
- Total impurity content ([1]; High humidity (25° C./92.5% relative humidity, open), 10 days): 1.65%
- Total impurity content ([1]; High temperature (60° C., open), 5 days): 1.64%
- Total impurity content ([1]; High temperature (60° C., open), 10 days): 1.64%
- Total impurity content ([1]; Initial, 0 day): 1.64%
- Total impurity content ([1]; Light irradiation (1.2 × 10^6 Lux · hr/near ultraviolet 200 w · hr/m^2, open), 10 days): 1.66%
- Total impurity content ([1]; Protected from light, 10 days): 1.64%
- solid stability (in words) ([1]; conclusion over all conditions): good stability

Compound: C=CC(=O)N1CCC(Nc2cc3c(Nc4ccc(F)c(Cl)c4)ncnc3cc2OC)CC1 [Control compound 2, reference compound]
- tumor inhibitory effect (in words) [2]: not significant

Compound: C=CC(=O)N1CCC(Oc2cc3c(Nc4ccc(Cl)c(Cl)c4F)ncnc3cc2OC)CC1 [Poziotinib, reference compound]
- inhibitory activity on CYP3A4 (in words) (CYP3A4): no inhibitory activity
- tumor inhibitory effect (in words) [3]: significant tumor inhibitory effect
- inhibitory activity on CYP1A2 (in words) (CYP1A2): no inhibitory activity
- body weight and clinical signs (in words) ([4]; 2/1.5 mg/kg): varying degrees of body weight loss and dandruff
- tumor inhibitory effect (in words) ([4]; 2/1.5 mg/kg, compared with the vehicle control group): significant tumor inhibitory effect
- Tumor volume (Day 21) ([4]; 2/1.5 mg/kg, Day 21, Mean + SEM): 57 ± 7 mm3
- body weight loss of individual mice (administration discontinued) ([4]; 2/1.5 mg/kg, from the 6th and 7th day, 1 mouse, then 3 mice): more than 15%
- effect on the body weight of mice (in words) ([4]; discussion, high-dose group): the body weight loss of mice was significant
- dark yellow urine, suggestion of toxicity (in words) ([4]; mouse, in vivo): mice in the whole group had dark yellow urine
